# Assay results reported in patent US20250368648A1, “MULTI-CYCLIC IRAK AND FLT3 INHIBITING COMPOUNDS AND USES THEREOF” (CHILDREN'S HOSPITAL MEDICAL CENTER, priority 2022, published 2025).
# Entries after “also recorded” stand apart in the source; their conditions may differ.
# Tests used:
# [1] = tested on: MOLM14-FLT3-ITD (D835Y) AML cells; experiment: Caspase-Glo 3/7 apoptosis assay, time course; format: cell-based
# [2] = tested on: MOLM14-FLT3-ITD(D835Y) acute myeloid leukemia cells; experiment: AML efficacy study in mice engrafted with MOLM14-FLT3-ITD(D835Y); format: in vivo
# Procedure: Female, NSG-SGM3 (NOD.Cg-Prkdc^scid Il2^tm1Wjl Tg(CMV-IL3, CSF2, KITLG)1Eav/MloySzJ) mice were intravascularly engrafted with MOLM14-FLT3-ITD(D835Y) acute myeloid leukemia cells. Injection of leukemia cells was performed on 3/21/2022. Mice were randomized and dosing began three weeks following engraftment. […] Mice experiencing clinical signs prior to scheduled end-date, including weight loss, lethargy, hunched posture, ruffled coat, or hind limb paralysis were humanely euthanized.
# Bone marrow aspirates were performed when the initial vehicle control mice became clinical, 9 days following initiation of treatment. Aspirates were centrifuged, treated with RBC lysis buffer, resuspended in 250 μL PBS, and two cytospin chamber slides were loaded with 125 μL. Cytospins were used to create two cytology slides per mouse: one for Wright-Giemsa staining and the other for huCD45 immunocytochemistry, if needed. Cytology slides were graded according to the number of leukemic cells identified per 400× field as follows: 0, none; 1, 1-5 CD45+ cells; 2, 6-10 CD45+ cells; 3, 11-15 CD45+ cells; 4, 16-30 CD45+ cells; 5, >30 CD45+ cells.
# At necropsy, sections of femur, tibia, vertebra, and sternum were evaluated for the presence of leukemic cells using H&E and CD45 immunohistochemistry, if needed. Grades for long bones, vertebrae, and sternum were recorded as follows: 0, no leukemic cells; 1, <1% of cells; 2, 1-10% of cells; 3, 10-50% of bone marrow; 4, >50% of bone marrow. Sums of the individual grades were taken for each mouse (range 0 to 12).
# Leukemic burden was measured in NSGS mice xenografted with MOLM14 FLT3-ITD(D835Y) and quantified using bone marrow (BM) aspirates. An initial BM aspirate, accompanied by peripheral CBC evaluation (submandibular samples), was collected at the time that clinical signs first appeared in control mice to verify AML engraftment prior to the start of drug dosing. Cytospin chambers were used to create two cytology slides per bone marrow sample. Aspirate samples were of high quality for 85% of samples. A semi-quantitative grading system was applied to each bone marrow aspirate according to the number of leukemic cells identified per 400× field as follows:
# • 1: 1-5 leukemic cells (per HPF) • 2: 6-10 leukemic cells • 3: 11-15 leukemic cells • 4: 16-30 leukemic cells • 5: >30 leukemic cells
# All mice had evidence of leukemia within the bone marrow aspirate. Histopathology scores we re-taken for long bones (femur and tibia), vertebrae, and sternum as follows: 0, no leukemic cells; 1, <1% of cells; 2, 1-10% of cells; 3, 10-50% of bone marrow; 4, >50% of bone marrow. Scores were totaled (range: 0 to 12) and plotted by group at necropsy. […] To incorporate survival, the bone marrow grade was divided by the time on test (FIG. 10).
# hERG = hERG (Homo sapiens, UniProt Q12809); experiment: Window to the hERG IC50 at the dose studied (FIG. 9B); conditions: at the dose studied (30 mg/kg, mice)
# THP1 cells = experiment: Combination drug screening, Cell Titer Glo, THP1 cells; conditions: FLT3 WT setting (THP1 cells), Cell Titer Glo, 48 hours;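 note: luminescence read out in 1536-well plates seeded with 500 THP1 cells per well, each drug spanning a 10-point concentration range in the combination matrix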
# Source text: A smaller concentration indicates higher potency to synergize with Venetoclax. […] The numbers in each cell represent the % response (left) or the Delta Bliss score (right) at each given concentration combination.
# A smaller concentration indicates higher potency to synergize with azacitidine. […] The numbers in each cell represent the % response (left) or the Delta Bliss score (right) at each given concentration combination.
# (§1) This is a cell line that has the FLT3 ITD mutation but also the FLT3 D835Y kinase domain mutation. […] Excess HSA is a measure of synergy vs. additivity or antagonism, wherein a negative Excess HSA value is indicative of synergy.
# Briefly, 10 nL of compounds were acoustically dispensed into 1536-well white polystyrene tissue culture-treated plates with an Echo 550 acoustic liquid handler (Labcyte). MOLM14 (D835Y) or THP1 cells were then added to compound-containing plates at a density of 500-cells/well in 5 μL of medium. A 10-point custom concentration range was used for all listed drugs. […] 48h post compound addition, 3 μL of Cell Titer Glo (Promega) were added to each well and plates were incubated at room temperature for 15 minutes with the stainless-steel lid in place. Luminescence readings were taken using a Viewlux imager (PerkinElmer) with a 2 second exposure time per plate.
# MOLM14 (D835Y) cells = experiment: Combination drug screening, Cell Titer Glo, MOLM14 (D835Y) cells; conditions: FLT3 mutant setting (ITD-D835Y cells), Cell Titer Glo, 48 hours;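 note: MOLM14 cells with FLT3 ITD plus D835Y, 500 per well in 1536-well plates, 10-point dose ranges, luminescent viability after 48 h, negative Excess HSA indicates synergy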
# Procedure: Briefly, 10 nL of the compound shown below was acoustically dispensed into 1536-well white polystyrene tissue culture-treated plates with an Echo 550 acoustic liquid handler (Labcyte). Cells were then added to compound-containing plate at a density of 500-cells/well in 5 μL of medium. A 6-point or 10-point custom concentration range was used for all listed drugs. Plates were incubated for 48 hours at standard incubator conditions covered by a stainless steel gasketed lid to prevent evaporation. 48h post compound addition, 3 μL of Cell Titer Glo (Promega) were added to each well and plates were incubated at room temperature for 15 minutes with the stainless-steel lid in place. Luminescence readings were taken using a Viewlux imager (PerkinElmer) with a 2 second exposure time per plate.
# A smaller concentration indicates higher potency to synergize with Venetoclax.
# A smaller concentration indicates higher potency to synergize with azacitidine.
# as §1
# Chain of hERG (Q12809 whole entry): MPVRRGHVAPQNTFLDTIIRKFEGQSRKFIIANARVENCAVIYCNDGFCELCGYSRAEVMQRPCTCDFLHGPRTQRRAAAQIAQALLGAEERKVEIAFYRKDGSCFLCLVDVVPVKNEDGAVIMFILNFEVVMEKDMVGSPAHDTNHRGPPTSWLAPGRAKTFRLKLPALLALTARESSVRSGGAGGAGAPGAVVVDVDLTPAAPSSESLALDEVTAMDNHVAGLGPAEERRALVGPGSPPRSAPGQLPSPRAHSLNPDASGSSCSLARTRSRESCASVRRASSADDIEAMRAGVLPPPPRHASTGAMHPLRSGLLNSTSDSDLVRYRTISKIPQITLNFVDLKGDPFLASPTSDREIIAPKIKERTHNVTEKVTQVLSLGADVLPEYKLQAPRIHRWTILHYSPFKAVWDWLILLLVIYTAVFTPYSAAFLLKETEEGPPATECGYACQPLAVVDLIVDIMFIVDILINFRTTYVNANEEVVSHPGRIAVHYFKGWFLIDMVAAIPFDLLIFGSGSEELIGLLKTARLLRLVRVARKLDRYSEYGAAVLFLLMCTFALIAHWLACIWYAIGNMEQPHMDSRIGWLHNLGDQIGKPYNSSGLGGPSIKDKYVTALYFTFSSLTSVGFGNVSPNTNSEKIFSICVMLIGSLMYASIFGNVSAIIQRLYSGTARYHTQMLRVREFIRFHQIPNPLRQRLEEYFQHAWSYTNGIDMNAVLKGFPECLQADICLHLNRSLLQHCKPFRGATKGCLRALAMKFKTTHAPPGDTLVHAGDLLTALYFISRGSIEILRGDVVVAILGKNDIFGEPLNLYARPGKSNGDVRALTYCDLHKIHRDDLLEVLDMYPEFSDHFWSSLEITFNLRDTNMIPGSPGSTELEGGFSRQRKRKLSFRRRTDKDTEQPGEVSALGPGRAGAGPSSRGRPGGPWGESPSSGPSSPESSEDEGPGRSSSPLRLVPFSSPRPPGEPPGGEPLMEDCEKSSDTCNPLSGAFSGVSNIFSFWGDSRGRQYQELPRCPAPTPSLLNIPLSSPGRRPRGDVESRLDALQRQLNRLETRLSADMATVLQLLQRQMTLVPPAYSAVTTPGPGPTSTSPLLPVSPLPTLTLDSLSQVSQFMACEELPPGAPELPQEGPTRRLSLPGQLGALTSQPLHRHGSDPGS
compound,measurement,setting,value
"COc1cc2ncc(-c3nc(N[C@@H]4CCCNC4)c(F)cc3F)n2nc1C1CC1 [Compound 106, (R)-6-(6-cyclopropyl-7-methoxyimidazo[1,2-b]pyridazin-3-yl)-3,5-difluoro-N-(piperidin-3-yl)pyridin-2-amine]",combination activity with venetoclax (apoptosis induction),[1]; dose level 6: gilteritinib 25 nM or Compound 106 12 nM with venetoclax 25 nM,much stronger than any of the other drug combinations
same,combination activity with venetoclax (apoptosis induction over 24 hours),[1]; dose level 7: 4 nM of Compound 106 and 8 nM of venetoclax,high activity
same,"cells entering apoptosis, combination with venetoclax","[1]; dose level 7: 4 nM of Compound 106 and 8 nM of venetoclax, four hours",about half of the cells enter into apoptosis in four hours
same,combination activity with venetoclax (apoptosis induction over 24 hours),[1]; dose level 8: 1.37 nM of Compound 106 and 2.7 nM of venetoclax,high activity
same,cells stimulated to apoptosis,"[1]; single agent, 1.37 nM, 12 hours of coverage",about 30%
same,"time at which apoptosis starts, single agent","[1]; single agent, even at the lowest dose of 1.37 nM, Caspase-Glo 3/7",≤ 12 h
same,survival,"[2]; 30 mg/kg orally once/day M-F, 90 days, NSG-SGM3 mice",Significant survival differences; also recorded: enhanced survival in mice compared to gilteritinib and CA-4948 (emavusertib); also recorded: improved survival compared to those treated with gilteritinib or emavusertib (CA-4948)
same,plasma levels (Cmax and AUC) against comparators,"[2]; 30 mg/kg, mice, FIG. 9B",not due to higher plasma levels vs. gilteritinib or emavusertib
same,survival-adjusted leukemic burden (bone marrow grade divided by time on test),"[2]; 90 day study, 30 mg/kg",decreased scores compared to standard of care F02 (Gilteritinib); also recorded: superior in reducing survival-adjusted leukemic burden
same,survival persisting after withdrawal of the compound,"[2]; after 90 days of treatment at 30 mg/kg, study then ended",7 days
same,bone marrow grades (leukemic burden) at necropsy,"[2]; sum of histopathology scores of long bones, vertebrae, sternum (range 0 to 12)",Decreased bone marrow grades
same,window to the hERG IC50,hERG,larger window to the hERG IC50 than does emavusertib (CA-4948)
same,synergy with venetoclax or azacitidine,THP1 cells,considerably more potent as a synergistic agent than either Gilteritinib or emavusertib (CA-4948)
same,synergy with venetoclax or azacitidine,MOLM14 (D835Y) cells,considerably more potent as a synergistic agent than either Gilteritinib or emavusertib (CA-4948)
